According to the NIST ThermoML archive (doi:10.1016/j.jct.2016.10.023):

Assay: xn = mol fraction of the nth substance listed
Conditions: Constant-volume piezometry

CCCCC [pentane] + CCCO
Conditions	mass density [kg/m3]
492.15 K, 4052 kPa, Gas, x1 = 0.5	144.33
492.15 K, 4112 kPa, Gas, x1 = 0.5	154.72
493.15 K, 888 kPa, Gas, x1 = 0.5	15.54
493.15 K, 1226 kPa, Gas, x1 = 0.8	22.56
493.15 K, 1421 kPa, Gas, x1 = 0.2	24.96
493.15 K, 1591 kPa, Gas, x1 = 0.5	30.02
493.15 K, 1810 kPa, Gas, x1 = 0.8	36.74
493.15 K, 2098 kPa, Gas, x1 = 0.5	40.54
493.15 K, 2429 kPa, Gas, x1 = 0.5	51.17
493.15 K, 2601 kPa, Gas, x1 = 0.8	58.5
493.15 K, 2706 kPa, Gas, x1 = 0.2	53.08
493.15 K, 2984 kPa, Gas, x1 = 0.5	67.61
493.15 K, 3042 kPa, Gas, x1 = 0.8	73.9
493.15 K, 3148 kPa, Gas, x1 = 0.5	72.7
493.15 K, 3184 kPa, Gas, x1 = 0.9	83.5
493.15 K, 3462 kPa, Gas, x1 = 0.5	89.03
493.15 K, 3598 kPa, Gas, x1 = 0.5	95.98
493.15 K, 3742 kPa, Gas, x1 = 0.8	106.55
493.15 K, 3862 kPa, Fluid (supercritical or subcritical phases), x1 = 0.9	123.52
493.15 K, 3941 kPa, Gas, x1 = 0.5	122.07
493.15 K, 3987 kPa, Fluid (supercritical or subcritical phases), x1 = 0.9	134.31
493.15 K, 4087 kPa, Gas, x1 = 0.5	144.32
493.15 K, 4129 kPa, Liquid, x1 = 0.2	471.17
493.15 K, 4161 kPa, Gas, x1 = 0.5	154.71
493.15 K, 4227 kPa, Gas, x1 = 0.5	165.38
493.15 K, 4237 kPa, Fluid (supercritical or subcritical phases), x1 = 0.8	140.51
493.15 K, 4263 kPa, Gas, x1 = 0.5	183.12
493.15 K, 4268 kPa, Fluid (supercritical or subcritical phases), x1 = 0.9	164.19
493.15 K, 4335 kPa, Fluid (supercritical or subcritical phases), x1 = 0.5	282.8
493.15 K, 4335 kPa, Fluid (supercritical or subcritical phases), x1 = 0.8	156.27
493.15 K, 4414 kPa, Fluid (supercritical or subcritical phases), x1 = 0.5	299.12
493.15 K, 4423 kPa, Fluid (supercritical or subcritical phases), x1 = 0.8	170.03
493.15 K, 4439 kPa, Fluid (supercritical or subcritical phases), x1 = 0.9	189.73
493.15 K, 4462 kPa, Fluid (supercritical or subcritical phases), x1 = 0.8	176.28
493.15 K, 4502 kPa, Fluid (supercritical or subcritical phases), x1 = 0.8	181.09
493.15 K, 4518 kPa, Fluid (supercritical or subcritical phases), x1 = 0.9	202.67
493.15 K, 4547 kPa, Fluid (supercritical or subcritical phases), x1 = 0.8	193.44
493.15 K, 4549 kPa, Fluid (supercritical or subcritical phases), x1 = 0.5	320.48
493.15 K, 4592 kPa, Fluid (supercritical or subcritical phases), x1 = 0.5	325.77
493.15 K, 4629 kPa, Fluid (supercritical or subcritical phases), x1 = 0.9	221.01
493.15 K, 4679 kPa, Fluid (supercritical or subcritical phases), x1 = 0.8	214.17
493.15 K, 4710 kPa, Fluid (supercritical or subcritical phases), x1 = 0.8	219.94
493.15 K, 4720 kPa, Fluid (supercritical or subcritical phases), x1 = 0.9	233.41
493.15 K, 4743 kPa, Fluid (supercritical or subcritical phases), x1 = 0.9	236.88
493.15 K, 4769 kPa, Fluid (supercritical or subcritical phases), x1 = 0.9	241.29
493.15 K, 4776 kPa, Fluid (supercritical or subcritical phases), x1 = 0.5	345.09
493.15 K, 4792 kPa, Fluid (supercritical or subcritical phases), x1 = 0.9	244.6
493.15 K, 4810 kPa, Fluid (supercritical or subcritical phases), x1 = 0.8	235.05
493.15 K, 4875 kPa, Fluid (supercritical or subcritical phases), x1 = 0.8	245.71
493.15 K, 4935 kPa, Fluid (supercritical or subcritical phases), x1 = 0.8	258.95
493.15 K, 5020 kPa, Fluid (supercritical or subcritical phases), x1 = 0.9	282.43
493.15 K, 5042 kPa, Fluid (supercritical or subcritical phases), x1 = 0.8	272.94
493.15 K, 5149 kPa, Fluid (supercritical or subcritical phases), x1 = 0.8	288.82
493.15 K, 5207 kPa, Fluid (supercritical or subcritical phases), x1 = 0.5	373.47
493.15 K, 5245 kPa, Fluid (supercritical or subcritical phases), x1 = 0.9	302.14
493.15 K, 5306 kPa, Fluid (supercritical or subcritical phases), x1 = 0.8	299.65
493.15 K, 5423 kPa, Fluid (supercritical or subcritical phases), x1 = 0.9	312.8
493.15 K, 5594 kPa, Fluid (supercritical or subcritical phases), x1 = 0.8	315.85
493.15 K, 5904 kPa, Fluid (supercritical or subcritical phases), x1 = 0.9	334.55
493.15 K, 5953 kPa, Fluid (supercritical or subcritical phases), x1 = 0.5	398.77
493.15 K, 5998 kPa, Fluid (supercritical or subcritical phases), x1 = 0.8	334.37
493.15 K, 6296 kPa, Fluid (supercritical or subcritical phases), x1 = 0.8	345.91
493.15 K, 6629 kPa, Fluid (supercritical or subcritical phases), x1 = 0.9	354.68
493.15 K, 6775 kPa, Fluid (supercritical or subcritical phases), x1 = 0.5	417.91
493.15 K, 7003 kPa, Fluid (supercritical or subcritical phases), x1 = 0.8	362.51
493.15 K, 7649 kPa, Liquid, x1 = 0.2	510.49
493.15 K, 8441 kPa, Fluid (supercritical or subcritical phases), x1 = 0.5	441.69
493.15 K, 9382 kPa, Fluid (supercritical or subcritical phases), x1 = 0.5	452.03
493.15 K, 10256 kPa, Fluid (supercritical or subcritical phases), x1 = 0.9	407.97
493.15 K, 10826 kPa, Fluid (supercritical or subcritical phases), x1 = 0.8	418.91
493.15 K, 11783 kPa, Fluid (supercritical or subcritical phases), x1 = 0.5	468.97
493.15 K, 14598 kPa, Liquid, x1 = 0.2	548.05
493.15 K, 18923 kPa, Fluid (supercritical or subcritical phases), x1 = 0.8	467.52
493.15 K, 23193 kPa, Fluid (supercritical or subcritical phases), x1 = 0.5	520.3
493.15 K, 26040 kPa, Liquid, x1 = 0.2	582.45
493.15 K, 27225 kPa, Fluid (supercritical or subcritical phases), x1 = 0.8	497.01
493.15 K, 32486 kPa, Fluid (supercritical or subcritical phases), x1 = 0.5	549.21
493.15 K, 32782 kPa, Liquid, x1 = 0.2	596.07
493.15 K, 37919 kPa, Fluid (supercritical or subcritical phases), x1 = 0.8	521.58
493.15 K, 43289 kPa, Liquid, x1 = 0.2	615.49
494.15 K, 4206 kPa, Gas, x1 = 0.5	154.71
494.15 K, 4318 kPa, Gas, x1 = 0.5	183.11
494.15 K, 4366 kPa, Fluid (supercritical or subcritical phases), x1 = 0.5	251.05
498.15 K, 4515 kPa, Fluid (supercritical or subcritical phases), x1 = 0.5	183.07
498.15 K, 4637 kPa, Fluid (supercritical or subcritical phases), x1 = 0.5	251
498.15 K, 4641 kPa, Fluid (supercritical or subcritical phases), x1 = 0.5	260.06
503.15 K, 912 kPa, Gas, x1 = 0.5	15.53
503.15 K, 1255 kPa, Gas, x1 = 0.8	22.55
503.15 K, 1464 kPa, Gas, x1 = 0.2	24.95
503.15 K, 1642 kPa, Gas, x1 = 0.5	30.01
503.15 K, 1866 kPa, Gas, x1 = 0.8	36.72
503.15 K, 2163 kPa, Gas, x1 = 0.5	40.52
503.15 K, 2523 kPa, Gas, x1 = 0.5	51.14
503.15 K, 2701 kPa, Gas, x1 = 0.8	58.47
503.15 K, 2838 kPa, Gas, x1 = 0.2	53.06
503.15 K, 3137 kPa, Gas, x1 = 0.5	67.58
503.15 K, 3169 kPa, Gas, x1 = 0.8	73.86
503.15 K, 3305 kPa, Gas, x1 = 0.5	72.67
503.15 K, 3338 kPa, Gas, x1 = 0.9	83.46
503.15 K, 3585 kPa, Gas, x1 = 0.2	91.5
503.15 K, 3654 kPa, Gas, x1 = 0.5	88.99
503.15 K, 3800 kPa, Gas, x1 = 0.5	95.94
503.15 K, 3948 kPa, Fluid (supercritical or subcritical phases), x1 = 0.8	106.5
503.15 K, 4106 kPa, Fluid (supercritical or subcritical phases), x1 = 0.9	123.46
503.15 K, 4150 kPa, Liquid, x1 = 0.2	419.16
503.15 K, 4247 kPa, Fluid (supercritical or subcritical phases), x1 = 0.5	122.01
503.15 K, 4264 kPa, Fluid (supercritical or subcritical phases), x1 = 0.9	134.25
503.15 K, 4466 kPa, Fluid (supercritical or subcritical phases), x1 = 0.5	144.25
503.15 K, 4546 kPa, Fluid (supercritical or subcritical phases), x1 = 0.8	140.44
503.15 K, 4573 kPa, Fluid (supercritical or subcritical phases), x1 = 0.5	154.64
503.15 K, 4621 kPa, Fluid (supercritical or subcritical phases), x1 = 0.9	164.11
503.15 K, 4653 kPa, Fluid (supercritical or subcritical phases), x1 = 0.5	165.3
503.15 K, 4689 kPa, Fluid (supercritical or subcritical phases), x1 = 0.8	156.19
503.15 K, 4764 kPa, Fluid (supercritical or subcritical phases), x1 = 0.5	183.03
503.15 K, 4818 kPa, Fluid (supercritical or subcritical phases), x1 = 0.8	169.95
503.15 K, 4821 kPa, Fluid (supercritical or subcritical phases), x1 = 0.5	200.59
503.15 K, 4859 kPa, Fluid (supercritical or subcritical phases), x1 = 0.9	189.64
503.15 K, 4864 kPa, Fluid (supercritical or subcritical phases), x1 = 0.5	210.43
503.15 K, 4865 kPa, Fluid (supercritical or subcritical phases), x1 = 0.8	176.2
503.15 K, 4895 kPa, Fluid (supercritical or subcritical phases), x1 = 0.5	224.27
503.15 K, 4924 kPa, Fluid (supercritical or subcritical phases), x1 = 0.8	181
503.15 K, 4956 kPa, Fluid (supercritical or subcritical phases), x1 = 0.5	241.74
503.15 K, 4976 kPa, Fluid (supercritical or subcritical phases), x1 = 0.5	250.94
503.15 K, 4988 kPa, Fluid (supercritical or subcritical phases), x1 = 0.9	202.57
503.15 K, 4993 kPa, Fluid (supercritical or subcritical phases), x1 = 0.5	260
503.15 K, 5013 kPa, Fluid (supercritical or subcritical phases), x1 = 0.8	193.35
503.15 K, 5023 kPa, Fluid (supercritical or subcritical phases), x1 = 0.5	270.83
503.15 K, 5099 kPa, Fluid (supercritical or subcritical phases), x1 = 0.5	282.66
503.15 K, 5158 kPa, Fluid (supercritical or subcritical phases), x1 = 0.9	220.9
503.15 K, 5187 kPa, Fluid (supercritical or subcritical phases), x1 = 0.8	214.06
503.15 K, 5234 kPa, Fluid (supercritical or subcritical phases), x1 = 0.8	219.83
503.15 K, 5246 kPa, Fluid (supercritical or subcritical phases), x1 = 0.5	298.97
503.15 K, 5287 kPa, Fluid (supercritical or subcritical phases), x1 = 0.9	233.29
503.15 K, 5320 kPa, Fluid (supercritical or subcritical phases), x1 = 0.9	236.76
503.15 K, 5356 kPa, Fluid (supercritical or subcritical phases), x1 = 0.9	241.17
503.15 K, 5385 kPa, Fluid (supercritical or subcritical phases), x1 = 0.9	244.48
503.15 K, 5390 kPa, Fluid (supercritical or subcritical phases), x1 = 0.8	234.94
503.15 K, 5482 kPa, Fluid (supercritical or subcritical phases), x1 = 0.8	245.58
503.15 K, 5510 kPa, Fluid (supercritical or subcritical phases), x1 = 0.5	320.32
503.15 K, 5579 kPa, Fluid (supercritical or subcritical phases), x1 = 0.5	325.6
503.15 K, 5611 kPa, Fluid (supercritical or subcritical phases), x1 = 0.8	258.82
503.15 K, 5786 kPa, Fluid (supercritical or subcritical phases), x1 = 0.9	282.29
503.15 K, 5797 kPa, Fluid (supercritical or subcritical phases), x1 = 0.8	272.8
503.15 K, 5864 kPa, Fluid (supercritical or subcritical phases), x1 = 0.5	344.91

mass density [kg/m3], Liquid
Conditions	492.65 K	492.95 K	493.15 K	502.95 K
x1 = 0.2	–	–	–	419.16
x1 = 0.5	282.81	270.96	260.13	–
